# Assays:
# [1] = tested on: T98G cells; test: Human glioblastoma subcutaneous xenograft, ABTL0812 with radiotherapy; type: in vivo, nude mice
# Procedure: (§1) Methods: Mice were injected subcutaneously with 1×10^6 U87MG or T98G cells in each flank to induce tumor formation. […] ABTL0812 was administered orally at 240 mg/kg 5 days/week and radiotherapy as single dose of 4 Gy administered at day 3.
# [2] = tested on: U87MG cells; test: as above; type: in vivo, nude mice
# Procedure: as §1
# [3] = tested on: THP-1 human macrophage cells; test: M1/M2 macrophage polarization, marker mRNA by RT-qPCR; type: cell-based
# Procedure: Methods: THP-1 monocytes growing in suspension are differentiated to macrophages by incubation with PMA for 24 hours, inducing their attachment to the plates. Once THP-1 are differentiated to macrophages, these are polarized to M1 by incubation with LPS for 6 or 24 hours in the presence of ABTL0812 (50 or 100 μM). In parallel, differentiated macrophages are polarized to M2 by incubation with IL-4 and IL-13 for 24 hours in the presence of ABTL0812 (50 μM). Then, polarized macrophages are lysed, total RNA extracted, retrotranscribed to cDNA and mRNA levels of IL1β, TNFα (M1 markers) and […] (M2 marker) were evaluated by RT-qPCR using specific probes.
# [4] = tested on: LA1-5S cells; test: Cell viability (crystal violet), ABTL0812 with irinotecan; type: cell-based; conditions: ABTL0812 30 μM + irinotecan 4, 8, 16 μM; 72 hours
# Procedure: Methods: LA1-5S cells were incubated with increasing concentrations of irinotecan (4 μM, 8 μM and 16 μM) and a fixed concentration of ABTL0812 (30 μM). Cells were treated for 72 hours in IMDM with 0.5% FBS. Cell viability was evaluated by crystal violet assay. Data is presented as mean±SEM of three independent experiments. Statistical analyses were performed according to the T-Test principle with GraphPad Prism® 5.0 software (*p<0.05; **p<0.01; ***p<0.001).
# [5] = tested on: human immortalized THP1 macrophages and human primary macrophages; test: Secretome of THP1 and primary macrophages, cytokine antibody array; type: cell-based
# Procedure: Methods: Whole blood was collected from healthy donors, and circulating monocytes were purified using immunomagnetic separation. Monocytes were selected using anti-CD14 antibodies bound to magnetic beads, which were retained in the magnetic column and further eluted for culturing in vitro. Monocytes were differentiated to macrophages incubating with M-CSF1 at 20 ng/mL for 7 days. Once primary monocytes were differentiated to macrophages, these were polarized to M1 by incubation with LPS for 6 or 24 hours in the presence of ABTL0812 (50 or 100 μM). In parallel, differentiated macrophages were polarized to M2 by incubation with IL-4 and IL-13 for 24 hours in the presence of ABTL0812 (50 μM). THP-1 monocytes growing in suspension were differentiated to macrophages by incubation with PMA for 24 hours, inducing their attachment to the plates. Once THP-1 were differentiated to macrophages, these were polarized to M1 by incubation with LPS for 6 or 24 hours in the presence of ABTL0812 (50 μM). In parallel, differentiated macrophages were polarized to M2 by incubation with IL-4 and IL-13 for 24 hours in the presence of ABTL0812 (50 μM). The culture media from ABTL0812 treated M1, M2 and differentiated macrophages (M0) were incubated using the RayBio C-Series Human Cytokine Antibody Array C3 (RayBiotec). Culture media was incubated with a PVDF (Polyvinylidene fluoride) membrane containing antibodies against 42 different cytokines. After incubation of culture media, the membrane was incubated with secondary antibodies and further developed using HRP (Horseradish peroxidase) substrate.
# [6] = tested on: MT5 cells; test: Syngeneic pancreatic cancer model, ABTL0812 vs anti-PD1; type: in vivo, C57BL6 mice
# Procedure: Methods: MT5 cells are a highly tumorigenic murine cell line mutated in KRAS and p53 initially derived from the pancreas of triple transgenic KRAS-p53-Cre (KPC) mice, carrying pancreatic duc-tal adenocarcinoma. […] C57BL6 mice were injected with 2×10^6 MT5 cells in one flank to induce tumor formation. […] The treatment groups were Vehicle, ABTL0812 and anti-PD1. ABTL0812 was administered by the oral route at 480 mg/kg/day. Anti-PD1 antibody was administered i.p. at 200 μg/dose every three days. Tumor volume and body weight were monitored 3 times a week. At the end of the treatments, mice were euthanized, tumors collected and single cell suspension was obtained by digesting tumors using digestion media containing collagenase and lipase and further processing with trypsin and DNAse. Additionally, spleens from treated mice were collected, minced using a strainer, and single cells were obtained after treatment with trypsin and DNAse. After cell suspensions were obtained, cancer cells and immune cells infiltrated withing tumors were stained using specific antibodies against different immune cell subsets and further analyzed using flow cytometry. The combinations used were: Th1 cells=CD45+ CD4+ CCR4− CXCR3+, Th2 cells=CD45+ CD4+ CCR4+ CXCR3−, Myeloid cells=CD45+ CD11b+ Ly6C+ and NKs cells=CD45+ NK1.1+.
# [7] = tested on: LLC1 cells; test: Syngeneic lung cancer model, subcutaneous LLC1, survival; type: in vivo, C57BL6 mice; conditions: ABTL0812 oral 120 mg/kg/day, anti-PD1 i.p. 100 ug/dose every three days
# Procedure: C57BL6 mice were injected with 0.25×10^6 LLC1 cells in one flank to induce tumor formation. […] Tumor volume and body weight were monitored 3 times a week. End point criteria was based on tumors over 800 mm3, or clinical signs of toxicity, distress or suffering indicative of animal euthanasia.
# [8] = tested on: Human pancreatic cancer cells; test: Secretome of pancreatic cancer cells, chemokine antibody array; type: cell-based; conditions: ABTL0812 100 μM; 24 hours
# Procedure: Methods: Human pancreatic cancer cells were treated with ABTL0812 at 100 μM for 24 hours and culture media was collected for its incubation using the RayBio C-Series Human Chemokine Antibody Array C1 (RayBiotec). Culture media was incubated with a membrane containing antibodies against 38 different chemokines. Afterwards, the membrane was incubated with secondary antibodies and further developed using HRP substrate.
# [9] = ABTL0812 oral 240 mg/kg 5 days/week
# [10] = ABTL0812 oral 240 mg/kg 5 days/week + radiotherapy single dose 4 Gy at day 3
# [11] = macrophages polarized to M1 (LPS 6 or 24 hours), ABTL0812 50 or 100 μM
# [12] = common in immortalized THP1 cells and in primary macrophages
smiles,measurement,setting,value
"CCCCC/C=C\C/C=C\CCCCCCC(O)C(=O)O (centres unmarked) [ABTL0812, COOH—CHOH—(CH2)6—(CH═CH—CH2)2—(CH2)3—CH3]","growth of subcutaneous tumors, single agent",[1]; [9],significantly decreased the growth of glioblastoma subcutaneous tumors
same,"growth of subcutaneous tumors, combination with radiotherapy",[1]; [10],significantly more efficacious than ABTL0812 or radiotherapy as single treatments
same,"growth of subcutaneous tumors, single agent",[2]; [9],significantly decreased the growth of glioblastoma subcutaneous tumors
same,"growth of subcutaneous tumors, combination with radiotherapy",[2]; [10],significantly more efficacious than ABTL0812 or radiotherapy as single treatments
same,expression of IL-1β,"[3]; differentiated macrophages without polarizing, ABTL0812 alone",significantly induce the expression of IL-1β
same,IL-1β mRNA levels,[3]; [11],significantly potentiates
same,TNFα mRNA levels,[3]; [11],significantly potentiates
same,IL-10 mRNA levels,"[3]; macrophages polarized to M2 (IL-4 and IL-13, 24 hours), ABTL0812 50 μM",significantly suppresses
same,irinotecan cytotoxicity on addition of ABTL0812,[4],significantly increased irinotecan cytotoxicity
same,secreted IL-1β,[5]; ABTL0812 50 or 100 μM,upregulation
same,secreted TNF-α,[5]; ABTL0812 50 or 100 μM,upregulation
same,secreted CCL7,[5]; [12],inhibited
same,secreted CCL8,[5]; [12],inhibited
same,secreted CCL17,[5]; [12],inhibited
same,secreted CCL22,[5]; [12],inhibited
same,secreted IL-10,[5]; [12],inhibited
same,tumor volume,"[6]; ABTL0812 oral 480 mg/kg/day, anti-PD1 i.p. 200 μg/dose every three days",significantly decreasing tumor volume compared with vehicle treatment group
same,Th1/Th2 ratio in spleen,[6]; flow cytometry,increase in the Th1/Th2 ratio
same,Myeloid cells within tumors,"[6]; flow cytometry, CD45+ CD11b+ Ly6C+",increase of Myeloid cells within tumors
same,percentage of NK cells within tumor,"[6]; flow cytometry, CD45+ NK1.1+",increase in the percentage of NK cells within tumor
same,survival,[7]; after 9 days of treatment,43%
same,survival,[7]; after 14 days of treatment,15%
same,secreted CCL5,[8],decrease
same,secreted CXCL6,[8],decrease
same,secreted CXCL16,[8],decrease
same,secreted angiogenin,[8],decrease

# — patent US20230088704A1, “A PHARMACEUTICAL COMBINATION FOR THE TREATMENT OF A CANCER” (ABILITY PHARMACEUTICALS S.L., priority 2020, published 2023)
